Where “and” joins values, the source holds several entries; their conditions need not be identical. Equal entries are not always repeated. Toxic doses and inconclusive results are not listed. Rule for the calls: active = survival T/C of 150% or more; inactive = T/C below 125% in these data.
Test system: BDF1 mice, B16 melanoma ip, median survival T/C
Experiment: NCI In Vivo Anticancer Drug Screen. Data for tumor model B16 Melanoma (intraperitoneal) in B6D2F1 (BDF1) mice
Conditions: endpoint: median survival time, higher = longer survival
How it was run: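 Antitumor activity is assessed in mice bearing a transplanted tumor, with survival or tumor size compared against vehicle-dosed controls and expressed as T/C.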

[1] = dose: 3.12 mg/kg/injection, schedule: Q01DX009 (ip), vehicle: Klucel (hydroxypropylcellulose) (HPC)
[2] = dose: 6.25 mg/kg/injection, schedule: Q01DX009 (ip), vehicle: Klucel (hydroxypropylcellulose) (HPC)
[3] = dose: 50.0 mg/kg/injection, schedule: Q01DX009 (ip), vehicle: saline with Tween-80
[4] = dose: 100.0 mg/kg/injection, schedule: Q01DX009 (ip), vehicle: saline with Tween-80
[5] = dose: 200.0 mg/kg/injection, schedule: Q01DX009 (ip), vehicle: saline with Tween-80
[6] = dose: 100.0 mg/kg/injection, schedule: Q01DX009 (ip), vehicle: Klucel (hydroxypropylcellulose) (HPC)
[7] = dose: 200.0 mg/kg/injection, schedule: Q01DX009 (ip), vehicle: Klucel (hydroxypropylcellulose) (HPC)
[8] = dose: 400.0 mg/kg/injection, schedule: Q01DX009 (ip), vehicle: Klucel (hydroxypropylcellulose) (HPC)
[9] = dose: 50.0 mg/kg/injection, schedule: Q01DX009 (ip), vehicle: Klucel (hydroxypropylcellulose) (HPC)
[10] = dose: 3.13 mg/kg/injection, schedule: Q01DX009 (ip), vehicle: saline with Tween-80
[11] = dose: 6.25 mg/kg/injection, schedule: Q01DX009 (ip), vehicle: saline with Tween-80
[12] = dose: 12.5 mg/kg/injection, schedule: Q01DX009 (ip), vehicle: saline with Tween-80
[13] = dose: 25.0 mg/kg/injection, schedule: Q01DX009 (ip), vehicle: saline with Tween-80
[14] = dose: 25.0 mg/kg/injection, schedule: Q01DX009 (ip), vehicle: Klucel (hydroxypropylcellulose) (HPC)
[15] = dose: 12.5 mg/kg/injection, schedule: Q01DX009 (ip), vehicle: Klucel (hydroxypropylcellulose) (HPC)

Measured: T/C

CC(CCc1ccccc1)NN (stereo not given)
inactive: dose: 3.12 mg/kg/injection, schedule: Q01DX009 (ip), vehicle: saline 122 % of control | dose: 6.25 mg/kg/injection, schedule: Q01DX009 (ip), vehicle: saline 112 % of control and 116 % of control | dose: 12.5 mg/kg/injection, schedule: Q01DX009 (ip), vehicle: saline 113 % of control | dose: 25.0 mg/kg/injection, schedule: Q01DX009 (ip), vehicle: saline 103 % of control and 112 % of control

N=P(N[P+](N)(c1ccccc1)c1ccccc1)(c1ccccc1)c1ccccc1
inactive: dose: 1.56 mg/kg/injection, schedule: Q01DX009 (ip), vehicle: Klucel (hydroxypropylcellulose) (HPC) 101 % of control | [1] 107 % of control | [2] 108 % of control

C=CCN(CC=C)P(=O)(N1CC1)N1CC1C (stereo not given)
inactive: dose: 0.36 mg/kg/injection, schedule: Q01DX009 (ip), vehicle: saline 112 % of control | dose: 0.5 mg/kg/injection, schedule: Q01DX009 (ip), vehicle: saline 110 % of control | dose: 0.83 mg/kg/injection, schedule: Q01DX009 (ip), vehicle: saline 116 % of control | dose: 1.25 mg/kg/injection, schedule: Q01DX009 (ip), vehicle: saline 114 % of control | dose: 1.8 mg/kg/injection, schedule: Q01DX009 (ip), vehicle: saline 99 % of control

CCOC(=O)C(=O)CC(=O)/C=C/c1ccccc1
inactive: [3] 94 % of control | [4] 97 % of control | [5] 97 % of control

CN(C)c1ccc2c(c1)C(Br)c1ccccc1-2 (stereo not given)
inactive: dose: 6.25 mg/kg/injection, schedule: Q04DX003 (ip), vehicle: Klucel (hydroxypropylcellulose) (HPC) 102 % of control | dose: 12.5 mg/kg/injection, schedule: Q04DX003 (ip), vehicle: Klucel (hydroxypropylcellulose) (HPC) 105 % of control | dose: 25.0 mg/kg/injection, schedule: Q04DX003 (ip), vehicle: Klucel (hydroxypropylcellulose) (HPC) 97 % of control

Cc1ccc(CCCC(=O)O)c(C)c1
inactive: [6] 104 % of control | [7] 96 % of control | [8] 97 % of control

Cc1cccc(NC(=O)Nc2ccccc2Cl)n1
inactive: [9] 90 % of control | [6] 94 % of control | [7] 94 % of control

CC(=O)O.[Pb]
inactive: dose: 1.56 mg/kg/injection, schedule: Q01DX009 (ip), vehicle: saline with Tween-80 95 % of control | [10] 95 % of control | [11] 95 % of control | [12] 88 % of control

O=C(Nc1ccccc1F)c1cccc(C(=O)Nc2ccccc2F)c1
inactive: [9] 101 % of control | [6] 108 % of control | [7] 96 % of control

C/C(=C\c1ccc(C)cc1)[N+](=O)[O-]
inactive: [13] 89 % of control | [3] 96 % of control

CC(CC(C)O)=NCCN=C(C)CC(C)O.[Ni] (stereo not given)
inactive: dose: 1.5 mg/kg/injection, schedule: Q04DX003 (ip), vehicle: saline with Tween-80 108 % of control | dose: 2.0 mg/kg/injection, schedule: Q04DX003 (ip), vehicle: saline with Tween-80 100 % of control | dose: 3.0 mg/kg/injection, schedule: Q04DX003 (ip), vehicle: saline with Tween-80 94 % of control | dose: 4.5 mg/kg/injection, schedule: Q04DX003 (ip), vehicle: saline with Tween-80 86 % of control

COc1ccc2c(oc(=O)c3c(Cl)nc(C)c(C)c32)c1OC
inactive: [14] 105 % of control | [9] 98 % of control | [6] 97 % of control | [7] 94 % of control

O=C(/C=C/c1ccc2c(c1)OCO2)c1ccc2c(c1)OCO2
inactive: [6] 100 % of control | [7] 110 % of control | [8] 117 % of control

CC(CC(O)c1ccccc1)c1ccccc1 (stereo not given)
inactive: [6] 102 % of control | [7] 100 % of control | [8] 92 % of control

Cc1c[n+]2ccccc2n1C
inactive: [13] 99 % of control and 100 % of control | [3] 94 % of control and 96 % of control | [4] 93 % of control and 94 % of control

O=C(O)CN(CCN(CC(=O)O)CC(=O)O)CCN(CC(=O)O)CC(=O)O
inactive: [1] 94 % of control | [2] 93 % of control and 94 % of control | [15] 102 % of control | [14] 96 % of control | [9] 88 % of control | [7] 92 % of control

CC(OCc1ccccc1)C(NC(=O)OC(C)(C)C)C(=O)O (stereo not given)
inactive: [11] 97 % of control | [12] 98 % of control | [13] 102 % of control | [3] 88 % of control and 95 % of control

Cc1cnc(/C=N\NC(N)=S)c2cccc(N)c12
inactive: dose: 3.12 mg/kg/injection, schedule: Q01DX009 (ip), vehicle: saline with Tween-80 100 % of control | dose: 3.13 mg/kg/injection, schedule: Q01DX009 (ip), vehicle: Klucel (hydroxypropylcellulose) (HPC) 102 % of control | [10] 114 % of control | [2] 114 % of control | [11] 103 % of control and 124 % of control | [15] 115 % of control

O=C(NC(Cc1ccccc1)C(=O)O)c1ccccc1 (stereo not given)
inactive: [3] 90 % of control | [4] 96 % of control

NC1=NC(=O)C(c2ccccc2)O1 (stereo not given)
inactive: [15] 94 % of control | [14] 97 % of control | [6] 102 % of control

Cc1cccc(NC(=O)Nc2cccc(Cl)c2)c1C
inactive: dose: 100.0 mg/kg/injection, schedule: Q04DX003 (ip), vehicle: Klucel (hydroxypropylcellulose) (HPC) 107 % of control | dose: 200.0 mg/kg/injection, schedule: Q04DX003 (ip), vehicle: Klucel (hydroxypropylcellulose) (HPC) 100 % of control | dose: 400.0 mg/kg/injection, schedule: Q04DX003 (ip), vehicle: Klucel (hydroxypropylcellulose) (HPC) 103 % of control

Brc1ccc(C[N+]23CN4CN(CN(C4)C2)C3)cc1
inactive: [6] 121 % of control | [7] 115 % of control

c1ccc(CCN2CCC(CCc3c[nH]c4ccccc34)CC2)cc1
inactive: [12] 90 % of control | [13] 103 % of control | [3] 94 % of control

Cc1c2c(cc3c1[nH]c1ccccc13)C=NCC2
inactive: [3] 107 % of control | [4] 98 % of control | [5] 109 % of control

CC(C)=CN1CCCCC1
inactive: [12] 101 % of control | [13] 105 % of control | dose: 25.0 mg/kg/injection, schedule: Q04DX003 (ip), vehicle: saline with Tween-80 104 % of control | [3] 108 % of control | dose: 50.0 mg/kg/injection, schedule: Q04DX003 (ip), vehicle: saline with Tween-80 109 % of control | dose: 100.0 mg/kg/injection, schedule: Q04DX003 (ip), vehicle: saline with Tween-80 90 % of control | [5] 86 % of control

COc1cccc(CNc2ccc(SC)cc2)c1OC
inactive: [6] 100 % of control | [7] 93 % of control | [8] 93 % of control

CCCCn1cnc2c(SC)ncnc21
inactive: [13] 90 % of control and 115 % of control | [3] 87 % of control and 111 % of control | [4] 92 % of control and 115 % of control
